9 compounds from patent US20250339569A1, “CARBONIC ANHYDRASE IX LIGANDS” (priority 2021, published 2025) can be followed below.

The target in assay [1] is T1, CAIX-expressing human HT-29 colorectal cancer cells (Homo sapiens, UniProt Q16790).
T1 construct: CAIX-expressing human HT-29 colorectal cancer cells; host or cells: HT-29 human colorectal cancer cells
Nature of the assay: FACS binding assay (IC50 determination, competition with tracer 3BP-2776 or 3BP-4149). The following applies: FACS binding assay, HT-29 cells, competition with tracer 3BP-4149 (3 nM, Cy5-labeled), 4° C., 1 hour; read-out: pIC50 category (activity) (converted). The procedure, abridged: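 HT-29 cells in FACS buffer (PBS, 1% FCS) at 500.000 cells/ml were exposed to compounds competing with a labelled tracer, with biotinylated compounds detected by 1 μg/mL APC-streptavidin for 30 min on ice. APC/Cy5 median fluorescence was read by flow cytometry and IC50 derived by 4PL fit.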

Assay [2] deals with T2, human carbonic anhydrase IX (hCAIX-Fc) (Homo sapiens, UniProt Q16790).
T2 construct: purchased SinoBliological (Sino Biological) 10107-H02H
Put plainly: Surface plasmon resonance assay with hCAIX-Fc. The class given is binding. The following applies: 25° C.; for t1/2 category (activity): SPR dissociation half-life, hCAIX-Fc; for Kd: SPR, hCAIX-Fc captured, read-out: pKD category (activity) (converted). Background: SPR reads the build-up and loss of mass on a sensor chip optically.

Starred links: 1 amine or outer side, 2 acyl side, 3 side chain; linkers in the order of their positions; H or OH if unused. Positions of bridges follow the written chain, without caps; N, C: chain ends. Non-standard residues stand in square brackets, D forms with d. Residues, ends and D or L forms follow the SMILES beside them. *: point of attachment. X24 = NS(=O)(=O)c1ccc(C(=O)Nc2cccc(C[C@H](N[*:1])C(=O)[*:2])c2)cc1; X21 = NS(=O)(=O)CCC(=O)Nc1cccc(C[C@H](N[*:1])C(=O)[*:2])c1; DOTA = O=C(O)CN1CCN(CC(=O)O)CCN(CC(=O)*)CCN(CC(=O)O)CC1; X6 = O=C(O)CCC(=O)Nc1cccc(C[C@H](N[*:1])C(=O)[*:2])c1; Benzoyl(4-SO2NH2) = NS(=O)(=O)c1ccc(C(=O)*)cc1; X7 = O=C([C@H](Cc1cccc(N[*:3])c1)N[*:1])[*:2]; Propanoyl(3-SO2NH2) = NS(=O)(=O)CCC(=O)*; Phe(4-NH2) = Nc1ccc(C[C@H](N)C(=O)O)cc1; mXylylene = c1cc(C[*:1])cc(C[*:2])c1; X36 = NS(=O)(=O)Cc1ccc(C(=O)*)cc1; X2 = O=C(CN1CCC(N[*:1])CC1)[*:2]; X17 = NS(=O)(=O)c1cc(C(=O)*)cs1; X27 = NS(=O)(=O)c1ccc(C(=O)*)s1; X29 = c1cc2cn[nH]c2cc1CN*; Dap = NC[C@H](N)C(=O)O

For the compound `CC(C)C[C@@H]1NC(=O)[C@H](Cc2cccc(NC(=O)CCC(=O)O)c2)NC(=O)[C@H](CC(=O)O)NC(=O)[C@H]2CCCN2C(=O)[C@H](CCC(=O)O)NC(=O)[C@@H]2CSCc3cccc(c3)CSC[C@@H](C(N)=O)NC(=O)[C@H](CNC(=O)C[C@H](NC(=O)[C@@H](NC(=O)CN3CCC(NC(=O)CN4CCN(CC(=O)O)CCN(CC(=O)O)CCN(CC(=O)O)CC4)CC3)C(C)C)C(=O)N2)NC(=O)[C@H](Cc2c[nH]c3ccccc23)NC(=O)[C@H]([C@@H](C)O)NC1=O` [3BP-4377] ({DOTA}-[X2]VDCE[dP]D[X6]LTW[Dap]C-NH2; lactam 3-12; linker 4-13 via mXylylene), the IC50 in assay [1] was less than 10 nM. Also, in assay [2], the “t1/2 category (activity)” value is “A (t1/2>15.0 minutes)” and the Kd was less than 10 nM.

For the compound `CC(C)C[C@@H]1NC(=O)[C@H](Cc2c[nH]c3ccccc23)NC(=O)[C@H](CCC(=O)NCc2ccc3cn[nH]c3c2)NC(=O)[C@H]2CCCN2C(=O)[C@H](CCC(=O)O)NC(=O)[C@@H](NC(=O)[C@H](Cc2ccc(O)cc2)NC(=O)[C@@H](NC(=O)CN2CCC(NC(=O)CN3CCN(CC(=O)O)CCN(CC(=O)O)CCN(CC(=O)O)CC3)CC2)C(C)C)CSCc2cccc(c2)CSC[C@@H](C(N)=O)NC(=O)[C@H](CO)NC(=O)[C@H](Cc2c[nH]c3ccccc23)NC(=O)[C@H]([C@@H](C)O)NC1=O` [3BP-4387] ({DOTA}-[X2]VYCE[dP]E(X29)WLTWSC-NH2; linker 4-13 via mXylylene), the IC50 in assay [1] was 10 to 79.4 nM. Besides, in assay [2], the “t1/2 category (activity)” value is “A (t1/2>15.0 minutes)” and the Kd was less than 10 nM.

In the case of `CC(C)C[C@@H]1NC(=O)[C@H](Cc2ccc(NC(=O)c3ccc(S(N)(=O)=O)cc3)cc2)NC(=O)[C@H](CC(=O)O)NC(=O)[C@H]2CCCN2C(=O)[C@H](CCC(=O)O)NC(=O)[C@@H](NC(=O)[C@H](Cc2ccc(O)cc2)NC(=O)[C@@H](NC(=O)CN2CCC(NC(=O)CN3CCN(CC(=O)O)CCN(CC(=O)O)CCN(CC(=O)O)CC3)CC2)C(C)C)CSCc2cccc(c2)CSC[C@@H](C(N)=O)NC(=O)[C@H](CO)NC(=O)[C@H](Cc2c[nH]c3ccccc23)NC(=O)[C@H]([C@@H](C)O)NC1=O` [3BP-4398] ({DOTA}-[X2]VYCE[dP]D[Phe(4-NH2)](Benzoyl(4-SO2NH2))LTWSC-NH2; linker 4-13 via mXylylene), the IC50 in assay [1] was 10 to 79.4 nM. In assay [2], the “t1/2 category (activity)” value is “C (t1/2 between 2.1 and 5.0 minutes)”; the Kd is less than 10 nM.

Turning to `CC(C)C[C@@H]1NC(=O)[C@H](Cc2ccc(NC(=O)CCS(N)(=O)=O)cc2)NC(=O)[C@H](CC(=O)O)NC(=O)[C@H]2CCCN2C(=O)[C@H](CCC(=O)O)NC(=O)[C@@H](NC(=O)[C@H](Cc2ccc(O)cc2)NC(=O)[C@@H](NC(=O)CN2CCC(NC(=O)CN3CCN(CC(=O)O)CCN(CC(=O)O)CCN(CC(=O)O)CC3)CC2)C(C)C)CSCc2cccc(c2)CSC[C@@H](C(N)=O)NC(=O)[C@H](CO)NC(=O)[C@H](Cc2c[nH]c3ccccc23)NC(=O)[C@H]([C@@H](C)O)NC1=O` [3BP-4400] ({DOTA}-[X2]VYCE[dP]D[Phe(4-NH2)](Propanoyl(3-SO2NH2))LTWSC-NH2; linker 4-13 via mXylylene), the IC50 in assay [1] was less than 10 nM. In assay [2], the “t1/2 category (activity)” value is “A (t1/2>15.0 minutes)” and the Kd is less than 10 nM.

On to `CC(C)C[C@@H]1NC(=O)[C@H](Cc2ccc(NC(=O)c3csc(S(N)(=O)=O)c3)cc2)NC(=O)[C@H](CC(=O)O)NC(=O)[C@H]2CCCN2C(=O)[C@H](CCC(=O)O)NC(=O)[C@@H](NC(=O)[C@H](Cc2ccc(O)cc2)NC(=O)[C@@H](NC(=O)CN2CCC(NC(=O)CN3CCN(CC(=O)O)CCN(CC(=O)O)CCN(CC(=O)O)CC3)CC2)C(C)C)CSCc2cccc(c2)CSC[C@@H](C(N)=O)NC(=O)[C@H](CO)NC(=O)[C@H](Cc2c[nH]c3ccccc23)NC(=O)[C@H]([C@@H](C)O)NC1=O` [3BP-4401] ({DOTA}-[X2]VYCE[dP]D[Phe(4-NH2)](X17)LTWSC-NH2; linker 4-13 via mXylylene), for which the IC50 in assay [1] is less than 10 nM. Also, in assay [2], the “t1/2 category (activity)” value is listed as “A (t1/2>15.0 minutes)” and the Kd is less than 10 nM.

As to `CC(C)C[C@@H]1NC(=O)[C@H](Cc2ccc(NC(=O)c3ccc(S(N)(=O)=O)s3)cc2)NC(=O)[C@H](CC(=O)O)NC(=O)[C@H]2CCCN2C(=O)[C@H](CCC(=O)O)NC(=O)[C@@H](NC(=O)[C@H](Cc2ccc(O)cc2)NC(=O)[C@@H](NC(=O)CN2CCC(NC(=O)CN3CCN(CC(=O)O)CCN(CC(=O)O)CCN(CC(=O)O)CC3)CC2)C(C)C)CSCc2cccc(c2)CSC[C@@H](C(N)=O)NC(=O)[C@H](CO)NC(=O)[C@H](Cc2c[nH]c3ccccc23)NC(=O)[C@H]([C@@H](C)O)NC1=O` [3BP-4402] ({DOTA}-[X2]VYCE[dP]D[Phe(4-NH2)](X27)LTWSC-NH2; linker 4-13 via mXylylene), the IC50 in assay [1] is less than 10 nM. Besides, in assay [2], the “t1/2 category (activity)” value is listed as “A (t1/2>15.0 minutes)” and the Kd is less than 10 nM.

As for `CC(C)C[C@@H]1NC(=O)[C@H](Cc2cccc(NC(=O)c3ccc(S(N)(=O)=O)cc3)c2)NC(=O)[C@H](CC(=O)O)NC(=O)[C@H]2CCCN2C(=O)[C@H](CCC(=O)O)NC(=O)[C@@H](NC(=O)[C@H](Cc2ccc(O)cc2)NC(=O)[C@@H](NC(=O)CN2CCC(NC(=O)CN3CCN(CC(=O)O)CCN(CC(=O)O)CCN(CC(=O)O)CC3)CC2)C(C)C)CSCc2cccc(c2)CSC[C@@H](C(N)=O)NC(=O)[C@H](CO)NC(=O)[C@H](Cc2c[nH]c3ccccc23)NC(=O)[C@H]([C@@H](C)O)NC1=O` [3BP-4405] ({DOTA}-[X2]VYCE[dP]D[X24]LTWSC-NH2; linker 4-13 via mXylylene), the IC50 in assay [1] is less than 10 nM. In addition, in assay [2], the “t1/2 category (activity)” value is “A (t1/2>15.0 minutes)” and the Kd is less than 10 nM.

For the compound `CC(C)C[C@@H]1NC(=O)[C@H](Cc2cccc(NC(=O)c3ccc(CS(N)(=O)=O)cc3)c2)NC(=O)[C@H](CC(=O)O)NC(=O)[C@H]2CCCN2C(=O)[C@H](CCC(=O)O)NC(=O)[C@@H](NC(=O)[C@H](Cc2ccc(O)cc2)NC(=O)[C@@H](NC(=O)CN2CCC(NC(=O)CN3CCN(CC(=O)O)CCN(CC(=O)O)CCN(CC(=O)O)CC3)CC2)C(C)C)CSCc2cccc(c2)CSC[C@@H](C(N)=O)NC(=O)[C@H](CO)NC(=O)[C@H](Cc2c[nH]c3ccccc23)NC(=O)[C@H]([C@@H](C)O)NC1=O` [3BP-4406] ({DOTA}-[X2]VYCE[dP]D[X7](X36)LTWSC-NH2; linker 4-13 via mXylylene), the IC50 in assay [1] was less than 10 nM. Besides, in assay [2], the “t1/2 category (activity)” value is “A (t1/2>15.0 minutes)” and the Kd was less than 10 nM.

Take `CC(C)C[C@@H]1NC(=O)[C@H](Cc2cccc(NC(=O)CCS(N)(=O)=O)c2)NC(=O)[C@H](CC(=O)O)NC(=O)[C@H]2CCCN2C(=O)[C@H](CCC(=O)O)NC(=O)[C@@H](NC(=O)[C@H](Cc2ccc(O)cc2)NC(=O)[C@@H](NC(=O)CN2CCC(NC(=O)CN3CCN(CC(=O)O)CCN(CC(=O)O)CCN(CC(=O)O)CC3)CC2)C(C)C)CSCc2cccc(c2)CSC[C@@H](C(N)=O)NC(=O)[C@H](CO)NC(=O)[C@H](Cc2c[nH]c3ccccc23)NC(=O)[C@H]([C@@H](C)O)NC1=O` [3BP-4407] ({DOTA}-[X2]VYCE[dP]D[X21]LTWSC-NH2; linker 4-13 via mXylylene): the IC50 in assay [1] was less than 10 nM. Also, in assay [2], the “t1/2 category (activity)” value was “A (t1/2>15.0 minutes)” and the Kd is less than 10 nM.
